Paper PMC9613470, “Diverse MarR bacterial regulators of auxin catabolism in the plant microbiome” (Nature Microbiology, 2022)
Where two headings read alike, the source gives them in different places.

Legend:
[1] = target: Variovorax paradoxus CL14 MarR_73 (Variovorax paradoxus, UniProt C5CSP2); test: biochemical; format: binding
Experimental: The coding sequence for each gene can be found in Supplementary Table 10. MarR expression plasmids were synthesized as codon-optimized genes for E. coli expression by BioBasic in the pLIC-His N-term vector (pMCSG7) and transformed into E. coli BL21 (DE3) Gold cells for expression. […] At an OD600 of 0.8, protein expression was induced by the addition of 0.1 mM IPTG and incubation continued overnight. Cells were collected by centrifugation at 4,500 × g for 20 min at 4 °C in a Sorvall (model RC-3B) swinging bucket centrifuge. Cell pellets were resuspended in buffer A (20 mM potassium phosphate, pH 7.4, 50 mM imidazole, 500 mM NaCl), DNase, lysozyme and a Roche Complete EDTA-free protease inhibitor tablet. Resuspended cells were sonicated and clarified via centrifugation at 17,000 × g for 60 min in a Sorvall (model RC-5B) swinging bucket centrifuge. The lysate was applied to a nickel-nitrilotriacetic acid HP column (GE Healthcare) on an Aktaxpress Fast Performance Liquid Chromatography (FPLC) system (Amersham Bioscience) and washed with buffer A. Protein was eluted with buffer B (20 mM potassium phosphate, pH 7.4, 500 mM imidazole, 500 mM NaCl). Fractions containing the protein of interest were combined and passed over a HiLoadTM 16/60 SuperdexTM 200 gel filtration column. Proteins were eluted in S200 buffer (20 mM HEPES, pH 7.4, 300 mM NaCl). Fractions were combined and concentrated for long-term storage at −80 °C.
All ITC measurements were performed at 25 °C using an Auto-ITC200 microcalorimeter (MicroCal/GE Healthcare). The buffer employed was 20 mM HEPES, pH 7.4, 50 mM NaCl and 0.5% dimethly sulfoxide (DMSO) for protein/ligand binding and 20 mM HEPES, pH 7.4 and 300 mM NaCl for DNA/protein binding experiments. For ligand binding experiments, the calorimetry cell (volume […]) was loaded with MarR wild-type, mutant or homologue protein at a concentration of 50 μM. The syringe was loaded with a ligand concentration of 0.5 or 2 mM. […] A typical injection protocol included a single 0.2 μl first injection followed by 20 1.5 μl injections of the syringe sample into the calorimetry cell. The spacing between injections was kept at 180 s and the reference power at 8 μcal s^−1. […] Two independent ITC measurements were performed for each condition.

[2] = system: Variovorax paradoxus CL14 MarR_73 S28A; test: ITC binding of duplex oligo DNA to MarR_73 S28A
[3] = ITC, 25 °C, 20 mM HEPES pH 7.4, 50 mM NaCl, 0.5% DMSO, mean of two measurements ± standard error
[4] = ITC, 25 °C, 20 mM HEPES pH 7.4, 300 mM NaCl
[5] = ITC, 25 °C, 20 mM HEPES pH 7.4, 300 mM NaCl, duplex oligo in cell, protein in syringe

Chain of Variovorax paradoxus CL14 MarR_73 (C5CSP2 entry or part of it): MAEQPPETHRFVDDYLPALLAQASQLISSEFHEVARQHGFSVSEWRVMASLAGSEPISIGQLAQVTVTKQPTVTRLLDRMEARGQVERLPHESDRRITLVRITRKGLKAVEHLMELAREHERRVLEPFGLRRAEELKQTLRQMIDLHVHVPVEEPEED
Chain of Variovorax paradoxus CL14 MarR_73 S28A (as listed by the source, stated change not applied): as the sequence (C5CSP2 entry or part of it) above, with S28A counted along it

Row | Molecule | Kd [1] [µM] | N (ligand binding stoichiometry to the MarR monomer) [1, 3] | also measured
1 | O=C(O)Cc1cccc2ccccc12 [1-Naphthaleneacetic Acid] | 0.33 ± 0.01 | 0.74 ± 0.01 | –
2 | O=C(O)COc1ccc(Cl)cc1Cl [2,4-Dichorophenoxyacetic Acid] | – | 1.40 ± 0.01 | Kd ([1]; ITC, 25 °C, 20 mM HEPES pH 7.4, 50 mM NaCl, 0.5% DMSO, mean of two measurements ± standard error, read-out: KD): 11 ± 1 µM
3 | O=C(O)Cc1c[nH]c2ccc(O)cc12 [5-Hydroxyindole-3-Acetic Acid] | 10 ± 0.3 | 0.78 ± 0.25 | –
4 | O=C(O)c1ccccc1 [Benzoic Acid] | 13 ± 1 | 0.80 ± 0.01 | –
5 | Oc1ccccc1O [Catachol (1,2-Dihydroxybenzene), 1,2-Dihydroxybenzene] | 13 ± 0.1 | 0.76 ± 0.01 | –
6 | O=C(O)CCCc1c[nH]c2ccccc12 [Indole-3-Butyric Acid] | 18 ± 1 | 0.80 ± 0.01 | –
7 | O=C(O)c1c[nH]c2ccccc12 [Indole-3-Carboxylic Acid] | 4.6 ± 0.5 | 0.67 ± 0.03 | –
8 | O=C(O)CCc1c[nH]c2ccccc12 [Indole-3-propionic Acid] | 17 ± 0.1 | 0.81 ± 0.05 | –
9 | O=C(O)Cc1ccccc1 [Phenylacetic Acid] | 10 ± 0.1 | 0.79 ± 0.02 | –
10 | Nc1c(Cl)c(Cl)nc(C(=O)O)c1Cl [Picloram] | 16 ± 0.4 | 0.96 ± 0.01 | –
11 | O=C(O)c1ccccc1O [Salicylic Acid] | 14 ± 3 | 0.90 ± 0.01 | –
12 | AATTCATGATTGTGGATACATT: 22 bp duplex oligo DNA, sequence between genes 73 and 72 (antisense TTAAGTACTAACACCTATGTAA; chemistry not fully specified; one strand is listed 3' to 5') | – | – | Kd ([2]; ITC in 150 mM NaCl): 0.428 ± 0.002 µM; N ([2]; ITC in 150 mM NaCl): 1.75 ± 0.014; N (MarR monomer binding stoichiometry to duplex DNA) [2, 4]: 2.1 ± 0.3; Kd [2, 5]: 0.52 ± 0.09 µM
13 | AATTCATGATTGTGGATACATTCA: 24 bp MarR_73 DNA binding sequence between genes 73 and 72 (antisense TTAAGTACTAACACCTATGTAAGT; chemistry not fully specified; one strand is listed 3' to 5') | – | – | Kd ([2]; ITC in 150 mM NaCl): 0.151 ± 0.025 µM; N ([2]; ITC in 150 mM NaCl): 2.51 ± 0.26; N (MarR monomer binding stoichiometry to duplex DNA) [2, 4]: 2.5 ± 0.2; Kd [2, 5]: 0.21 ± 0.09 µM
14 | GTAATTCATGATTGTGGATACATTCATTTG: 30 bp duplex oligo DNA, sequence between genes 73 and 72 of the Variovorax IAA degradation locus (antisense CATTAAGTACTAACACCTATGTAAGTAAAC; chemistry not fully specified; one strand is listed 3' to 5') | – | – | N (MarR monomer binding stoichiometry to duplex DNA) [2, 4]: 2.0 ± 0.1; Kd [2, 5]: 0.27 ± 0.02 µM
